# Results reported in patent US10681909B2, “Herbicidal triazoles” (FMC Corporation, priority 2014, dated 2020).
# Legend:
# [1] = tested on: foxtail, giant; assay: Test A preemergence; type: in vivo, Setaria faberii; details: 0 to 100 scale (0 no effect, 100 complete control)
# How it was run: (§1)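 Test chemicals, formulated in a surfactant-containing non-phytotoxic solvent mixture, are applied either as a directed soil spray to newly planted seeds or as a postemergence application to plants at the one- to two-leaf stage (2–10 cm). All plants grow in a loam soil and sand blend.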
# [2] = tested on: corn; assay: Test C postemergence; type: in vivo, Zea mays
# How it was run: (§2)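 Test chemicals in a non-phytotoxic solvent mixture with surfactant were applied to pots of plants at 2 to 18 cm (1- to 4-leaf stage) for postemergence treatment, grown in a peat-based medium with vermiculite, starter nutrients and dolomitic limestone. Preemergence treatment was to seeds freshly planted in loam soil mixed with sand.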
# [3] = tested on: wheat; assay: Test A postemergence; type: in vivo, Triticum aestivum; details: 0 to 100 scale (0 no effect, 100 complete control), approx. 10 d
# How it was run: as §1
# [4] = tested on: galium; assay: Test C postemergence; type: in vivo, Galium aparine
# How it was run: as §2
# [5] = tested on: wheat (winter wheat); assay: Test C postemergence; type: in vivo, Triticum aestivum
# How it was run: as §2
# [6] = tested on: oilseed rape; assay: Test C postemergence; type: in vivo, Brassica napus
# How it was run: as §2
# [7] = tested on: lambsquarters; assay: Test C postemergence; type: in vivo, Chenopodium album
# How it was run: as §2
# [8] = tested on: waterhemp; assay: Test C postemergence; type: in vivo, Amaranthus rudis
# How it was run: as §2
# [9] = tested on: barnyardgrass; assay: Test A preemergence; type: in vivo, Echinochloa crus-galli; details: 0 to 100 scale (0 no effect, 100 complete control)
# How it was run: as §1
# [10] = tested on: velvetleaf; assay: Test C postemergence; type: in vivo, Abutilon theophrasti
# How it was run: as §2
# [11] = tested on: corn; assay: Test A postemergence; type: in vivo, Zea mays; details: 0 to 100 scale (0 no effect, 100 complete control), approx. 10 d
# How it was run: as §1
# [12] = tested on: pigweed; assay: Test A preemergence; type: in vivo, Amaranthus retroflexus; details: 0 to 100 scale (0 no effect, 100 complete control)
# How it was run: as §1
# [13] = tested on: crabgrass, large; assay: Test C postemergence; type: in vivo, Digitaria sanguinalis
# How it was run: as §2
# [14] = tested on: barnyardgrass; assay: Test A postemergence; type: in vivo, Echinochloa crus-galli; details: 0 to 100 scale (0 no effect, 100 complete control), approx. 10 d
# How it was run: as §1
# [15] = tested on: rice; assay: Test B flooded paddy test; type: in vivo, Oryza sativa; details: 250 g ai/ha, applied to paddy water at 2-leaf stage, visual rating after 13 to 15 d, scale 0 (no effect) to 100 (complete control)
# How it was run: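 Pots were flooded to 3 cm above the soil at treatment, and compounds were applied directly into the paddy water. That depth was held throughout. After 13 to 15 d in a greenhouse, plants were rated visually against untreated controls.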
# [16] = tested on: pigweed; assay: Test A postemergence; type: in vivo, Amaranthus retroflexus; details: 0 to 100 scale (0 no effect, 100 complete control), approx. 10 d
# How it was run: as §1
# [17] = tested on: nutsedge, yellow; assay: Test C postemergence; type: in vivo, Cyperus esculentus
# How it was run: as §2
# [18] = tested on: soybean; assay: Test C postemergence; type: in vivo, Glycine max
# How it was run: as §2
# [19] = tested on: ryegrass, Italian; assay: Test C postemergence; type: in vivo, Lolium multiflorum
# How it was run: as §2
# [20] = tested on: pigweed; assay: Test C postemergence; type: in vivo, Amaranthus retroflexus
# How it was run: as §2
# [21] = tested on: foxtail, giant; assay: Test A postemergence; type: in vivo, Setaria faberii; details: 0 to 100 scale (0 no effect, 100 complete control), approx. 10 d
# How it was run: as §1
smiles,measurement,setting,value
Fc1ccc(-c2nc(OCC(F)(F)F)n(Cc3ccnc(C(F)(F)F)c3)n2)cc1 [Compound 30],"Plant response rating, Foxtail, Giant",[1]; 125 g ai/ha,100
same,"Plant response rating, Foxtail, Giant","[1]; 500 g ai/ha, approx. 10 d",100
same,Plant response rating (scale of 0 to 100 where 0 is no effect and 100 is complete control),[2]; 31 g ai/ha,15
same,Plant response rating (scale of 0 to 100 where 0 is no effect and 100 is complete control),[2]; 62 g ai/ha,10
same,Plant response rating (scale of 0 to 100 where 0 is no effect and 100 is complete control),[2]; 125 g ai/ha,25
same,Plant response rating (scale of 0 to 100 where 0 is no effect and 100 is complete control),[2]; 250 g ai/ha,20
same,"Plant response rating, Wheat",[3]; 125 g ai/ha,10
same,"Plant response rating, Wheat",[3]; 500 g ai/ha,30
same,Plant response rating (scale of 0 to 100 where 0 is no effect and 100 is complete control),[4]; 31 g ai/ha,80
same,Plant response rating (scale of 0 to 100 where 0 is no effect and 100 is complete control),[4]; 62 g ai/ha,80
same,Plant response rating (scale of 0 to 100 where 0 is no effect and 100 is complete control),[4]; 125 g ai/ha,90
same,Plant response rating (scale of 0 to 100 where 0 is no effect and 100 is complete control),[4]; 250 g ai/ha,90
same,Plant response rating (scale of 0 to 100 where 0 is no effect and 100 is complete control),[5]; 31 g ai/ha,5
same,Plant response rating (scale of 0 to 100 where 0 is no effect and 100 is complete control),[5]; 62 g ai/ha,5
same,Plant response rating (scale of 0 to 100 where 0 is no effect and 100 is complete control),[5]; 125 g ai/ha,15
same,Plant response rating (scale of 0 to 100 where 0 is no effect and 100 is complete control),[5]; 250 g ai/ha,20
same,Plant response rating (scale of 0 to 100 where 0 is no effect and 100 is complete control),"[6]; Oilsee Rape, 250 g ai/ha",95
same,Plant response rating (scale of 0 to 100 where 0 is no effect and 100 is complete control),"[6]; Oilseed Rape, 31 g ai/ha",35
same,Plant response rating (scale of 0 to 100 where 0 is no effect and 100 is complete control),"[6]; Oilseed Rape, 62 g ai/ha",80
same,Plant response rating (scale of 0 to 100 where 0 is no effect and 100 is complete control),"[6]; Oilseed Rape, 125 g ai/ha",95
same,Plant response rating (scale of 0 to 100 where 0 is no effect and 100 is complete control),[7]; 31 g ai/ha,70
same,Plant response rating (scale of 0 to 100 where 0 is no effect and 100 is complete control),[7]; 62 g ai/ha,85
same,Plant response rating (scale of 0 to 100 where 0 is no effect and 100 is complete control),[7]; 125 g ai/ha,95
same,Plant response rating (scale of 0 to 100 where 0 is no effect and 100 is complete control),[7]; 250 g ai/ha,95
same,Plant response rating (scale of 0 to 100 where 0 is no effect and 100 is complete control),[8]; 31 g ai/ha,95
same,Plant response rating (scale of 0 to 100 where 0 is no effect and 100 is complete control),[8]; 62 g ai/ha,98
same,Plant response rating (scale of 0 to 100 where 0 is no effect and 100 is complete control),[8]; 125 g ai/ha,95
same,Plant response rating (scale of 0 to 100 where 0 is no effect and 100 is complete control),[8]; 250 g ai/ha,98
same,"Plant response rating, Barnyardgrass",[9]; 125 g ai/ha,90
same,"Plant response rating, Barnyardgrass","[9]; 500 g ai/ha, approx. 10 d",100
same,Plant response rating (scale of 0 to 100 where 0 is no effect and 100 is complete control),[10]; 31 g ai/ha,55
same,Plant response rating (scale of 0 to 100 where 0 is no effect and 100 is complete control),[10]; 62 g ai/ha,60
same,Plant response rating (scale of 0 to 100 where 0 is no effect and 100 is complete control),[10]; 125 g ai/ha,80
same,Plant response rating (scale of 0 to 100 where 0 is no effect and 100 is complete control),[10]; 250 g ai/ha,90
same,"Plant response rating, Corn",[11]; 125 g ai/ha,40
same,"Plant response rating, Corn",[11]; 500 g ai/ha,50
same,"Plant response rating, Pigweed",[12]; 125 g ai/ha,100
same,"Plant response rating, Pigweed","[12]; 500 g ai/ha, approx. 10 d",100
same,Plant response rating (scale of 0 to 100 where 0 is no effect and 100 is complete control),[13]; 31 g ai/ha,20
same,Plant response rating (scale of 0 to 100 where 0 is no effect and 100 is complete control),[13]; 62 g ai/ha,15
same,Plant response rating (scale of 0 to 100 where 0 is no effect and 100 is complete control),[13]; 125 g ai/ha,35
same,Plant response rating (scale of 0 to 100 where 0 is no effect and 100 is complete control),[13]; 250 g ai/ha,60
same,"Plant response rating, Barnyardgrass",[14]; 125 g ai/ha,80
same,"Plant response rating, Barnyardgrass",[14]; 500 g ai/ha,90
same,"Plant response rating, Rice, Flood",[15],30
same,"Plant response rating, Pigweed",[16]; 125 g ai/ha,100
same,"Plant response rating, Pigweed",[16]; 500 g ai/ha,100
same,Plant response rating (scale of 0 to 100 where 0 is no effect and 100 is complete control),[17]; 31 g ai/ha,5
same,Plant response rating (scale of 0 to 100 where 0 is no effect and 100 is complete control),[17]; 62 g ai/ha,5
same,Plant response rating (scale of 0 to 100 where 0 is no effect and 100 is complete control),[17]; 125 g ai/ha,10
same,Plant response rating (scale of 0 to 100 where 0 is no effect and 100 is complete control),[17]; 250 g ai/ha,15
same,Plant response rating (scale of 0 to 100 where 0 is no effect and 100 is complete control),[18]; 31 g ai/ha,25
same,Plant response rating (scale of 0 to 100 where 0 is no effect and 100 is complete control),[18]; 62 g ai/ha,45
same,Plant response rating (scale of 0 to 100 where 0 is no effect and 100 is complete control),[18]; 125 g ai/ha,60
same,Plant response rating (scale of 0 to 100 where 0 is no effect and 100 is complete control),[18]; 250 g ai/ha,75
same,Plant response rating (scale of 0 to 100 where 0 is no effect and 100 is complete control),[19]; 31 g ai/ha,20
same,Plant response rating (scale of 0 to 100 where 0 is no effect and 100 is complete control),[19]; 62 g ai/ha,25
same,Plant response rating (scale of 0 to 100 where 0 is no effect and 100 is complete control),[19]; 125 g ai/ha,30
same,Plant response rating (scale of 0 to 100 where 0 is no effect and 100 is complete control),[19]; 250 g ai/ha,50
same,Plant response rating (scale of 0 to 100 where 0 is no effect and 100 is complete control),[20]; 31 g ai/ha,95
same,Plant response rating (scale of 0 to 100 where 0 is no effect and 100 is complete control),[20]; 62 g ai/ha,95
same,Plant response rating (scale of 0 to 100 where 0 is no effect and 100 is complete control),[20]; 125 g ai/ha,98
same,Plant response rating (scale of 0 to 100 where 0 is no effect and 100 is complete control),[20]; 250 g ai/ha,98
same,"Plant response rating, Foxtail, Giant",[21]; 125 g ai/ha,80
same,"Plant response rating, Foxtail, Giant",[21]; 500 g ai/ha,90
